AC50, IC50 and EC50 data for 9 compounds are collected here from ChEMBL document CHEMBL1201862, “PubChem BioAssay data set” (2004).

Active and inactive are the calls of the source.

In general, AC50 refers to the concentration giving half of the maximal activity seen.

The nature of experiment [1]: off-target signal loss in HeLa-CEM21 co-culture – HeLa F-luc CTL cells, cherry-picked, counter-screen for HIV-1 Env fusion inhibitor project, dose response (AID 652040).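 Further: potency for signal decrease marking cytotoxic or nonspecific inhibition.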 It counts as functional, cell-based.
The nature of experiment [2]: viability loss in CEM21 cells – cell-based, CellTiter-Glo luminescence, cherry-picked, cytotoxicity control for viral fusion inhibitor project, dose response (AID 652042).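 Further: potency for signal decrease meaning cytotoxicity.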 The class given is functional. (Cellular ATP, detected with luciferase, serves as a proxy for viable cell number.)
Experiment [3] is described as follows: HIV-1 AD8 envelope cell-cell fusion blockers – cherry-pick, dose response (AID 652062).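 Further: luciferase signal from cell-cell fusion driven by HIV-1 clade B AD8 Env; potency is for inhibitors of fusion seen as a drop in luminescence.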 The class given is functional, cell-based.
Experiment [4] is described as follows: blockers of HIV-1 envelope-mediated cell-cell fusion – cherry-pick, dose response (AID 652057). The class given is functional, cell-based.
Experiment [5] is described as follows: blockers of HIV-1 ZM109 envelope-driven cell-cell fusion – HeLa effector, CEM target cells, luciferase, cherry-pick, dose response (AID 652058).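 Further: luciferase signal from HIV-1 Env mediated cell-cell fusion of effector and target cells.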 It counts as functional, cell-based.
Experiment [6] is described as follows: Luminescence-based cell-based high throughput dose response assay to identify activators of the DAF-12 from the parasite S. stercoralis (ssDAF-12). It counts as functional.
The target of experiment [7] is T1, Oxysterols receptor LXR-beta (Homo sapiens, UniProt P55055).
T1 sequence (P55055 whole entry): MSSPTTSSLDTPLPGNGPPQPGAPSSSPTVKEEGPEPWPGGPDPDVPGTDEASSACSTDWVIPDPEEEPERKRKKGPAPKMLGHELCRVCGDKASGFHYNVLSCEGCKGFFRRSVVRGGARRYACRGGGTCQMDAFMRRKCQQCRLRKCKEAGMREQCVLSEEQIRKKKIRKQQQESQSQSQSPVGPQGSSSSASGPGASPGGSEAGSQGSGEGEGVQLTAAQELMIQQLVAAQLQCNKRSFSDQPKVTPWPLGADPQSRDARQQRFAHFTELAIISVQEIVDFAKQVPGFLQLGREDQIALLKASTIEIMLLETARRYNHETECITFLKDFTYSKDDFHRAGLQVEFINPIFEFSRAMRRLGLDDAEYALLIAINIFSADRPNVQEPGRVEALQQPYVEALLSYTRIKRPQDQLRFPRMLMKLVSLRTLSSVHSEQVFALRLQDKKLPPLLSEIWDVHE
It counts as functional, cell-based.

The target of experiment [8] is T1, Oxysterols receptor LXR-beta. Nature of the experiment: LXR agonists, Gal4 luciferase reporter, dose response, counter-screen for ssDAF-12 agonist project, cell-based, luminescence, HEK293, S. stercoralis campaign (AID 720737). The class given is functional. Particulars: read-out: IC50 (the source's name).
Experiment [9] can be described thus: cells.
For experiment [10], the target named is T2, Small ubiquitin-related modifier 1 (Homo sapiens, UniProt P63165). The experiment can be described thus: SUMO1 protein-protein binding blockers, potency – biochemical, FRET, dose response (AID 624383). It counts as functional. Particulars: read-out: IC50_Mean.
The next experiment has as its system H9c2. Nature of the experiment: cells. The class given is functional, cell-based. Particulars: Rattus norvegicus, H9c2, Myocardium.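 Further: confirmatory concentration-response retest of ultra-high-throughput screening hits for modulation of myocardial damage; cell death induced by hydrogen peroxide oxidative stress; compound pretreatment for 60 min then peroxide exposure for 2 h; potency is for protecting the cells against peroxide damage rather than for killing them.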
Experiment [11] has as its target T2, Small ubiquitin-related modifier 1. Nature of the experiment: SUMO1 protein interaction blockers, potency – biochemical, fluorescence polarization, uHTS hits, dose response (AID 624382). The class given is functional. Particulars: read-out: IC50_Mean.
For a further experiment, the target named is Prothrombin (Bos taurus, UniProt P00735). Nature of the experiment: thrombin protease inhibitors – biochemical, fluorescence polarization, uHTS hits, dose response (AID 602369). The class given is functional. Background: Fluorescence polarisation rises when a labelled molecule tumbles more slowly, as on binding a larger partner.
Experiment [12] deals with 72 kDa type IV collagenase (Homo sapiens, UniProt P08253). Nature of the experiment: Dose Response validation of uHTS RPN11 inhibitor hits using a MMP-2 Fluorescence assay. It counts as functional.
In experiment [13] the target is 26S proteasome non-ATPase regulatory subunit 14 (Homo sapiens, UniProt O00487). Nature of the experiment: inhibition of proteasome subunit RPN11 – biochemical, fluorescence polarization, uHTS hits, confirmation (AID 602368). It counts as functional.
Experiment [14] in a line: cells. It counts as functional, cell-based.
Experiment [15] in a line: cells. The class given is functional, cell-based. This is another data set of the same source.
Experiment [16] in a line: CellTiter-Glo luminescence survival assay, SW480 colon tumor line, concentration-response curve, half-maximal inhibitory concentration (AID 1117338). The class given is functional.
Experiment [17] is described as follows: cytotoxicity toward Colo320 cells – cell-based, CellTiter-Glo luminescence, IC50, dose response (AID 1117334). The class given is functional. Particulars: COLO 320.
Experiment [18] is described as follows: RKO cell viability reduction, dose response, CellTiter-Glo luminescence (AID 1117322). The class given is functional.
A short description of experiment [19]: cytotoxicity toward HCT116 cells – cell-based, CellTiter-Glo luminescence, IC50, dose response (AID 1117332). It counts as functional. Particulars: HCT-116.
Experiment [20] in a line: cytotoxicity toward HT-29 cells – cell-based, CellTiter-Glo luminescence, IC50, dose response (AID 1117330). It counts as functional.
Experiment [21] in a line: SNU-C1 cell viability reduction, dose response, CellTiter-Glo luminescence (AID 1117323). It counts as functional, cell-based.
Experiment [22] in a line: Reduced DLD-1 viability, concentration-response, CellTiter-Glo luminescence (AID 1117352). The class given is functional.
The nature of experiment [23]: decrease of insulin promoter-GFP reporter – imaging, high-content screening, mouse beta cells (AID 1628). Particulars: MIN6. It counts as functional.
Experiment [24] can be described thus: non-specific 3'UTR reporter inhibition in Clone20-Shn3RL – cell-based, Renilla luciferase, cherry-picked, counter-screen for Shn3 inhibitor project, dose response (AID 624133). It counts as functional. In general terms: The purpose of a counterscreen is to sort out artefacts and off-target activity.
Experiment [25] can be described thus: MIN6 cell viability loss – mouse insulinoma, cytotoxicity control, dose response (AID 2122).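 Further: confirmatory high-throughput counterscreen run to flag cytotoxic compounds.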 It counts as functional.
Experiment [26] in a line: Shn3 3'UTR reporter signal decrease – cell-based, Clone20 osteoblasts, firefly luciferase, cherry-pick, set 2, Schnurri-3 inhibitor project, dose response (AID 720490).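 Further: actives lower the luminescence signal as inhibitors.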 The class given is functional.
Experiment [27] is described as follows: loss of viability in HepG2 cells – cell-based, CellTiter-Glo, cherry-picked, cytotoxicity control for Shn3 inhibitor project, dose response (AID 624134). The class given is functional.
Experiment [28] in a line: reduction of Shn3 3'UTR-driven luciferase in osteoblasts – cell-based, Clone20 osteoblasts, firefly luciferase, cherry-picked, dose response (AID 624132).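 Further: firefly luciferase luminescence from reporter carrying the Shn3 3'UTR in osteoblasts.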 The class given is functional.
For a further experiment, the target named is T3, Caspase-6 (Homo sapiens, UniProt P55212).
T3 sequence (P55212 whole entry): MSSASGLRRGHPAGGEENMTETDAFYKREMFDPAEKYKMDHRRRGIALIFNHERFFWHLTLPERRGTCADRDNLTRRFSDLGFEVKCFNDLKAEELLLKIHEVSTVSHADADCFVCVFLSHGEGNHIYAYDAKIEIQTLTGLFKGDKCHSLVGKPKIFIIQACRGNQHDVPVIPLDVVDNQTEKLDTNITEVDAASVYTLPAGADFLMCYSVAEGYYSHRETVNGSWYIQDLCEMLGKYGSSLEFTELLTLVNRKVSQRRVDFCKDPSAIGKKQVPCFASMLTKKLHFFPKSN
Nature of the experiment: inhibition of CASP6 peptide cleavage – biochemical, VEID-R110 fluorescence, cherry-pick, dose response (AID 720632).

T2 sequence (P63165 whole entry): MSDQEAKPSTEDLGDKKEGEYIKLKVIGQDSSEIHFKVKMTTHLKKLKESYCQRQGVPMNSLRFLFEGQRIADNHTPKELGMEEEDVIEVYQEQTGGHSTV
Sequence of 26S proteasome non-ATPase regulatory subunit 14 (O00487 whole entry): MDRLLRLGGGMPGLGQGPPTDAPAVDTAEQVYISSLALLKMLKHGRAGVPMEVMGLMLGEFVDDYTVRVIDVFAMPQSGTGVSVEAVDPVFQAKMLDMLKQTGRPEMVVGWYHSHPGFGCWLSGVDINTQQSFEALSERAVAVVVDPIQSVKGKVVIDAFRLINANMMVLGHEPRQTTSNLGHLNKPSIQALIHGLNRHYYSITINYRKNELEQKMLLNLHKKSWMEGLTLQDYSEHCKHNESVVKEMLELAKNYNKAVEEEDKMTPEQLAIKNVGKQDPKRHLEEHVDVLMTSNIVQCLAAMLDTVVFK
Sequence of 72 kDa type IV collagenase (P08253 whole entry): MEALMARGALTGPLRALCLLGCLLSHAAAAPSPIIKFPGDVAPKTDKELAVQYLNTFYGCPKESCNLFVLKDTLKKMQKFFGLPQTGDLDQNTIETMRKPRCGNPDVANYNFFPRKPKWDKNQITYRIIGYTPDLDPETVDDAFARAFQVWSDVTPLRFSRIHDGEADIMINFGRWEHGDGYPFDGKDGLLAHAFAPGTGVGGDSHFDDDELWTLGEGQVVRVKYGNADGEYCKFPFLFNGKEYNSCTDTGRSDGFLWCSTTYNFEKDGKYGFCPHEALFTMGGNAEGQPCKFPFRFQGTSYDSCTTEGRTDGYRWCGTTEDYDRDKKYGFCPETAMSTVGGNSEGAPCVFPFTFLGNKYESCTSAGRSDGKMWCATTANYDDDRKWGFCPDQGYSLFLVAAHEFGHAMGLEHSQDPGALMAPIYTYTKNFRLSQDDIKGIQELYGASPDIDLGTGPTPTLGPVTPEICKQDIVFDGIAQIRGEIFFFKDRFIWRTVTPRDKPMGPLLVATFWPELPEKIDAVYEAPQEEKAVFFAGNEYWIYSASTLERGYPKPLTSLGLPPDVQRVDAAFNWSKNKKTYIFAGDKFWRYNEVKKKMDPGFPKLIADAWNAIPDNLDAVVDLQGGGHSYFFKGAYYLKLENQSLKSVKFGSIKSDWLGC

Consider `COC(=O)[C@]12C[C@H](CC(=O)NCc3ccc(C)o3)C(=O)N(CCC3=CCCCC3)C1=C[C@H](C(C)(C)C)O[C@@H]2C`, for which the AC50 in experiment [1] is 1.71 µM (active); in [2] it was 20.3 µM (active); in [3] it was 2.73 µM (active); in [4] it was 1.28 µM (active); in experiment [5], < 0.26 µM (active).

For `COc1ccccc1-c1nc(-c2ccc(Br)o2)no1`, in experiment [6], the IC50 is > 67.5 µM (inactive). Also, the EC50 (in experiment [7]; in [8]; in “cells [9]”) was > 67.5 µM (inactive) in each case.

For `COc1cc(/C=N/NC(=O)c2cccnc2)ccc1OCC(=O)Nc1ccccc1Cl`, the IC50 is 100 µM (inactive) in experiment [10]; > 79 µM (inactive) in the experiment with H9c2; > 66.6 µM (inactive) in experiment [11]; > 100 µM (inactive) at Prothrombin; > 100 µM (inactive) in [12]; 47 µM (active) in experiment [13].

In the case of `O=C(c1nc2ccccn2c1CNCC1OCCc2ccccc21)N1CCOCC1` (stereo not drawn), the IC50 in the experiment “cells [14]” was > 29.9 µM (inactive). Further, the EC50 in “cells [15]” was > 29.9 µM (inactive).

In the case of `CC(C)=CC1C(C(=O)OCN2C(=O)C3=C(CCCC3)C2=O)C1(C)C` (stereo not drawn) [TETRAMETHRIN], the IC50 in experiment [16], in [17], in experiment [18], in experiment [19], in experiment [20] and in experiment [21] was > 20 µM (inactive) each time. The IC50 in [22] is > 20 µM (inactive).

Take `O=C(Nc1ccc2c(c1)OCCO2)Nc1ccc2c(c1)OCO2`: in [6], the IC50 is > 67.6 µM (inactive). In addition, in experiment [8], the EC50 was > 67.6 µM (inactive).

For `CCN(CC)c1ccc(NC(=O)CN2C(=O)CSc3ncccc32)c(C)c1`, the IC50 is 1.33 µM (active) in [23] and 0.713 µM (active) in experiment [25]. Besides, the AC50 in experiment [24] was 10.2 µM (active); in experiment [26], 2.17 µM (active); in experiment [27], 31.9 µM (active); in [28], 1.78 µM (active).

As to `O=C(c1cccc(C(F)(F)F)c1)N1CCc2c([nH]c3ccccc23)C1C(F)(F)F` (stereo not drawn), the concentration at half-maximal activity (AC50) in experiment [1] is 1.88 µM (active); in [2], 50.8 µM (active); in [3] it was 1.19 µM (active); in [4], 5.55 µM (active); in experiment [5], 0.66 µM (active).

For `COc1ccc(CCN2CC(C(=O)NCCc3ccc(C)cc3)CC2=O)cc1OC` (stereo not drawn), the AC50 at Caspase-6 is 20.1 µM (active).
